According to patent US8822464B2, “N-aryl-piperazine derivatives and their use as positive allosteric modulators of mGluR5 receptors” (Boehringer Ingelheim International GmbH, priority 2011, dated 2014):

Each compound was assayed against T1, human recombinant mGluR5 (Homo sapiens, UniProt P41594) (assay: positive modulation of mGluR5, calcium based FLIPR assay in HEK 293 cells). Details: HEK 293 cell line expressing human recombinant mGluR5; peak height of Ca release fluorescence signal after glutamate at approximately 5% basal stimulation; nonlinear regression.
T1 construct: expressed in transfected cells; host or cells: HEK 293 cell line; cultured with tetracycline, hygromycin and geneticin; tetracycline withdrawn 3-7 days before the assay
Description: The positive modulation of mGluR5 is measured in a HEK 293 cell line expressing human recombinant mGluR5 and is detected with calcium based FLIPR assay. The cells are cultured with DMEM supplemented with 10% FCS, 2 μg/mL tetracycline, 100 μg/mL hygromycin and 500 μg/mL gneticin. The cell culture media is exchanged for tetracycline-free cell culture media 3-7 days before the assay. One day before the assay the cell culture medium is exchanged to DMEM without glutamine and phenol red and supplemented with 10% FCS, 100 μg/mL hygromycin and 500 μg/mL geneticin. On the assay day, the medium of the subconfluent cultures is removed and the cells are detached by addition of 2.5 ml EDTA(0.02%) per 175 cm2 culture flask for 1 minute. The cells are resuspend in Ringer solution (140 mM NaCl, 5 mM KCl, 2.5 mM CaCl2, 1.5 mM MgCl2, 5 mM Glucose, 10 mM Hepes; adjusted to pH 7.4 with NaOH), pooled and Ringer solution added to adjust the volume to 50 mL. The cell suspension is centrifuged for 5 min at 1500 U/min (425 g). The supernatant is removed and the cells washed a second time with 50 ml fresh Ringer solution and centrifuged again as before. The supernatant is again removed and the pellet resuspended in Ringer solution to 1,000,000 cells/ml (1×10^6 cells/mL). The cells are plated onto BD BioCoat Poly-D-Lysine 384 well plates (20.000 cells/well; 20 μl/well). The lid covered plates are then incubated until use at 37° C./10% CO2. For dye loading, 20 μl of Calcium-4 assay kit solution (prepared according to the manufacturer's description in Ringer solution) are added to the cells and the plates are incubated for 80 min 37° C. and then 10 min at room temperature.
Controls, Compound Dilution and Assay Execution:
Each assay plate contained wells with “high” and “low” controls:
Low controls 1% DMSO/ringer solution+basal glutamate activation (defined as 100% CTL).
High controls 10 μM CDPPB+basal glutamate activation (defined as 200% CTL).
Test compounds are dissolved and diluted in DMSO to 100-fold the desired concentrations. In a second step, the compounds are diluted in Ringer solution such that the compounds are 4-fold more concentrated than the desired final assay concentration. The final DMSO concentration was 1%.
20 μl of each compound solution are then transferred to the assay plate and the Ca2+ kinetic is measured to determine any intrinsic compound activity. After 5 min incubation in the FLIPR device, the second stimulation with 20 μl of glutamate in Ringer solution (glutamate concentration adjusted to approximately 5% basal stimulation of the maximal possible glutamate effect) is added and the kinetic Ca2+ response of the wells was measured for the modulation effect.
The peak height of the Ca release related fluorescence signal (9-66) is used for the EC50. The EC50 of the modulation is calculated over a nonlinear regression with GraphPad Prism (Table 1).

T1 sequence (P41594 21-1212): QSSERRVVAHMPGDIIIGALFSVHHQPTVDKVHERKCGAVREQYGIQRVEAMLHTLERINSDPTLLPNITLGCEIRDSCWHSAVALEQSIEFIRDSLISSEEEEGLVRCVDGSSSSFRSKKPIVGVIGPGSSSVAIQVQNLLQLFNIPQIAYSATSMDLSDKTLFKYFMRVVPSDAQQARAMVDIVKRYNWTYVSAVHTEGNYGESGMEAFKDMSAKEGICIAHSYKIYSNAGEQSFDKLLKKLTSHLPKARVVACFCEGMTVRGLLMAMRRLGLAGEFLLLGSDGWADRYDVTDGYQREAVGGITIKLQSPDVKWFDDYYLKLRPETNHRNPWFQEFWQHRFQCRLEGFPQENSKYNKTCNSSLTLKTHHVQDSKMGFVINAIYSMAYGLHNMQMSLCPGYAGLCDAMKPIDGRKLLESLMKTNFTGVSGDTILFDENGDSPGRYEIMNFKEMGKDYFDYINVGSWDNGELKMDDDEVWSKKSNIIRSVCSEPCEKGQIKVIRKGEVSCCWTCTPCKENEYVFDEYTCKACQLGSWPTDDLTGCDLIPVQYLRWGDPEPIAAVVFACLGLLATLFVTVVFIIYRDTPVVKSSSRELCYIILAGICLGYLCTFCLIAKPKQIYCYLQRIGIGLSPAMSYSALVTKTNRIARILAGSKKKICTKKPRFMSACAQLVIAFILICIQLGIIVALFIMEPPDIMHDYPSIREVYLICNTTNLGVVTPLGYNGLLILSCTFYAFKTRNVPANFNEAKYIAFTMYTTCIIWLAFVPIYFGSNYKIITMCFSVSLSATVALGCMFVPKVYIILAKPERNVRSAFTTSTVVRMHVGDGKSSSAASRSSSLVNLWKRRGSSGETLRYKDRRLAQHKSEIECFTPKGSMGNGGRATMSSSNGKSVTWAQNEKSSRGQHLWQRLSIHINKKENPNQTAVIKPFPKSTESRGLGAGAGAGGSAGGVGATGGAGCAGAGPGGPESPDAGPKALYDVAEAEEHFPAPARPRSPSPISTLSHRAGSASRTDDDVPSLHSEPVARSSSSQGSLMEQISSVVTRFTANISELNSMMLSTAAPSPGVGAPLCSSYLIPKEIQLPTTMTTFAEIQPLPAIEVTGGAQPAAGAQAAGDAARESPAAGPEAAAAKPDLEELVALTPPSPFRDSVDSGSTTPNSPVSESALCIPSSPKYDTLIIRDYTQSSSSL

EC50 [nM]	Compound
677	O=C(Cn1nc(-c2ccc(F)cn2)cc1-c1ccc(F)cc1)N1CCN(c2cccnn2)CC1 [Example 7.01.64]
253	O=C(Cn1nc(-c2ccc(F)cc2)cc1-c1ccc(F)cn1)N1CCN(c2ncccn2)CC1 [Example 7.01.65]
957	O=C(Cn1nc(-c2ccccc2)cc1-c1ccc(F)cn1)N1CCN(c2ncccn2)CC1 [Example 7.01.66]
61	CCc1cc(-c2ccc(F)c(C)c2)nn1CC(=O)N1CCN(c2cc(OC)ncn2)CC1 [Example 7.01.67]
74	CCc1cc(-c2ccc(F)c(C)c2)nn1CC(=O)N1CCN(c2cc(OC)ccn2)CC1 [Example 7.01.68]
79	CCc1cc(-c2ccc(F)c(C)c2)nn1CC(=O)N1CCN(c2ccccn2)CC1 [Example 7.01.69]
41	CCc1cc(-c2ccc(F)c(C)c2)nn1CC(=O)N1CCN(c2ncccn2)CC1 [Example 7.01.70]
51	CCc1cc(-c2ccc(F)c(C)c2)nn1CC(=O)N1CCN(c2ncc(OC)cn2)CC1 [Example 7.01.71]
63	CCc1cc(-c2ccc(F)c(C)c2)nn1CC(=O)N1CCN(c2ncc(F)cn2)CC1 [Example 7.01.72]
419	CCc1cc(-c2ccc(F)cc2)nn1CC(=O)N1CCN(c2ccccn2)CC1 [Example 7.01.73]
253	CCc1cc(-c2ccc(F)cc2)nn1CC(=O)N1CCN(c2ncccn2)CC1 [Example 7.01.74]
421	CCc1cc(-c2ccc(F)cc2)nn1CC(=O)N1CCN(c2cc(OC)ccn2)CC1 [Example 7.01.75]
388	CCc1cc(-c2ccc(F)cc2)nn1CC(=O)N1CCN(c2ncc(OC)cn2)CC1 [Example 7.01.76]
697	CCc1cc(-c2ccc(F)cc2)nn1CC(=O)N1CCN(c2cc(OC)ncn2)CC1 [Example 7.01.77]
723	CCc1cc(-c2ccc(F)cc2)nn1CC(=O)N1CCN(c2ncc(F)cn2)CC1 [Example 7.01.78]
26	CCCc1cc(-c2ccc(F)c(C)c2)nn1CC(=O)N1CCN(c2cc(OC)ncn2)CC1 [Example 7.01.79]
45	CCCc1cc(-c2ccc(F)c(C)c2)nn1CC(=O)N1CCN(c2cc(OC)ccn2)CC1 [Example 7.01.80]
13	CCCc1cc(-c2ccc(F)c(C)c2)nn1CC(=O)N1CCN(c2ncccn2)CC1 [Example 7.01.81]
33	CCCc1cc(-c2ccc(F)c(C)c2)nn1CC(=O)N1CCN(c2ncc(OC)cn2)CC1 [Example 7.01.82]
52	CCCc1cc(-c2ccc(F)c(C)c2)nn1CC(=O)N1CCN(c2ccccn2)CC1 [Example 7.01.83]
67	CCCc1cc(-c2ccc(F)c(C)c2)nn1CC(=O)N1CCN(c2cccnn2)CC1 [Example 7.01.84]

EC50 [nM]	Compound
371	COc1ccnc(N2CCN(C(=O)Cn3nc(-c4ccc(F)cc4)cc3C(C)C)CC2)c1 [Example 7.01.85]
69	CCc1cc(-c2ccc(C)c(C)c2)nn1CC(=O)N1CCN(c2ncccn2)CC1 [Example 7.01.87]
366	COc1cc(N2CCN(C(=O)Cn3nc(-c4ccc(F)cc4)cc3C(C)C)CC2)ncn1 [Example 7.01.88]
577	COc1cnc(N2CCN(C(=O)Cn3nc(-c4ccc(F)cc4)cc3C(C)C)CC2)nc1 [Example 7.01.89]
157	CC(C)c1cc(-c2ccc(F)cc2)nn1CC(=O)N1CCN(c2ncccn2)CC1 [Example 7.01.90]
195	CCc1cc(-c2ccc(C)c(C)c2)nn1CC(=O)N1CCN(c2ccccn2)CC1 [Example 7.01.91]
302	CCc1cc(-c2ccc(C)c(C)c2)nn1CC(=O)N1CCN(c2cc(OC)ccn2)CC1 [Example 7.01.92]
170	CCc1cc(-c2ccc(C)c(C)c2)nn1CC(=O)N1CCN(c2cc(OC)ncn2)CC1 [Example 7.01.93]
136	CCc1cc(-c2cccc(C)c2)nn1CC(=O)N1CCN(c2ncccn2)CC1 [Example 7.01.94]
237	CCc1cc(-c2cccc(C)c2)nn1CC(=O)N1CCN(c2ccccn2)CC1 [Example 7.01.95]
168	CCc1cc(-c2cccc(C)c2)nn1CC(=O)N1CCN(c2cc(OC)ccn2)CC1 [Example 7.01.96]
181	CCc1cc(-c2cccc(C)c2)nn1CC(=O)N1CCN(c2cc(OC)ncn2)CC1 [Example 7.01.97]
13	Cc1ccc(-c2cc(-c3ccccc3)n(CC(=O)N3CCN(c4ncccn4)CC3)n2)cc1C [Example 7.01.98]
129	CCc1cc(-c2ccc(C)c(C)c2)nn1CC(=O)N1CCN(c2ncc(OC)cn2)CC1 [Example 7.01.99]
126	CCc1cc(-c2cccc(C)c2)nn1CC(=O)N1CCN(c2ncc(OC)cn2)CC1 [Example 7.01.100]
17	COc1cc(N2CCN(C(=O)Cn3nc(-c4ccc(C)c(C)c4)cc3-c3ccccc3)CC2)ncn1 [Example 7.01.101]
20	Cc1ccc(-c2cc(-c3ccccc3)n(CC(=O)N3CCN(c4ccccn4)CC3)n2)cc1C [Example 7.01.102]
24	COc1cnc(N2CCN(C(=O)Cn3nc(-c4ccc(C)c(C)c4)cc3-c3ccccc3)CC2)nc1 [Example 7.01.103]
39	Cc1cc(-c2cc(C)n(CC(=O)N3CCN(c4ncccn4)CC3)n2)ccc1F [Example 7.01.104]
35	Cc1ccc(-c2cc(-c3ccccc3)n(CC(=O)N3CCN(c4ccccn4)CC3)n2)nc1 [Example 7.01.106]
64	COCCCc1cc(-c2ccc(F)c(C)c2)nn1CC(=O)N1CCN(c2ncccn2)CC1 [Example 7.01.107]

EC50 [nM]	Compound
1260	COCCCc1cc(-c2ccc(F)c(C)c2)nn1CC(=O)N1CCN(c2ccccn2)CC1 [Example 7.01.108]
140	COCCCc1cc(-c2ccc(F)c(C)c2)nn1CC(=O)N1CCN(c2cc(OC)ccn2)CC1 [Example 7.01.109]
137	COCCCc1cc(-c2ccc(F)c(C)c2)nn1CC(=O)N1CCN(c2cc(OC)ncn2)CC1 [Example 7.01.110]
24	Cc1ccc(-c2cc(-c3ccccc3)n(CC(=O)N3CCN(c4ncccn4)CC3)n2)nc1 [Example 7.01.111]
120	COCCCc1cc(-c2ccc(F)c(C)c2)nn1CC(=O)N1CCN(c2ncc(OC)cn2)CC1 [Example 7.01.112]
94	CCc1cc(-c2cccc(Cl)c2)nn1CC(=O)N1CCN(c2ncccn2)CC1 [Example 7.01.113]
153	CCc1cc(-c2cccc(Cl)c2)nn1CC(=O)N1CCN(c2ccccn2)CC1 [Example 7.01.114]
65	CCc1cc(-c2cccc(Cl)c2)nn1CC(=O)N1CCN(c2ncc(OC)cn2)CC1 [Example 7.01.115]
89	CCc1cc(-c2cccc(Cl)c2)nn1CC(=O)N1CCN(c2cc(OC)ncn2)CC1 [Example 7.01.116]
28	Cc1cc(-c2cc(CC(C)C)n(CC(=O)N3CCN(c4ccccn4)CC3)n2)ccc1F [Example 7.01.117]
18	Cc1cc(-c2cc(CC(C)C)n(CC(=O)N3CCN(c4ncccn4)CC3)n2)ccc1F [Example 7.01.118]
19	COc1ccnc(N2CCN(C(=O)Cn3nc(-c4ccc(C)cn4)cc3-c3ccccc3)CC2)c1 [Example 7.01.119]
20	COc1cc(N2CCN(C(=O)Cn3nc(-c4ccc(C)cn4)cc3-c3ccccc3)CC2)ncn1 [Example 7.01.120]
34	COc1cc(N2CCN(C(=O)Cn3nc(-c4ccc(F)c(C)c4)cc3CC(C)C)CC2)ncn1 [Example 7.01.121]
51	Cc1cc(-c2cc(CC(C)C)n(CC(=O)N3CCN(c4ncc(F)cn4)CC3)n2)ccc1F [Example 7.01.122]
36	COc1cnc(N2CCN(C(=O)Cn3nc(-c4ccc(F)c(C)c4)cc3CC(C)C)CC2)nc1 [Example 7.01.123]
8	Cc1ccc(-c2cc(-c3ccccc3)n(CC(=O)N3CCN(c4ncccn4)CC3)n2)nc1C [Example 7.01.124]
204	CCc1cccc(-c2cc(CC)n(CC(=O)N3CCN(c4ccccn4)CC3)n2)c1 [Example 7.01.128]
212	CCc1cccc(-c2cc(CC)n(CC(=O)N3CCN(c4cc(OC)ncn4)CC3)n2)c1 [Example 7.01.129]
471	CCc1cccc(-c2cc(CC)n(CC(=O)N3CCN(c4ncc(F)cn4)CC3)n2)c1 [Example 7.01.130]
